Legend:
[1] = Acute cytotoxicity against cat CRFK cells assessed as decrease in cell viability at 10 uM measured after 24 hrs by MTT assay relative to control; type: cell-based, Felis catus
[2] = Chronic cytotoxicity against cat FL-4 cells assessed as decrease in cell viability measured after 7 days by MTT assay; type: cell-based, Felis catus
[3] = tested on: Feline immunodeficiency virus; experiment: Antiviral activity against FIV infected in cat FL-4 cells assessed as reduction in viral RNA level measured after 7 days by qRT-PCR analysis; type: functional, organism-based; conditions: FL-4, 168 h
[4] = Therapeutic index, ratio of CC50 for cat FL-4 cells to EC50 for antiviral activity against FIV infected in cat FL-4 cells; type: toxicity, cell-based; conditions: read-out: Ratio CC50/EC50
[5] = Solubility of the compound; type: physicochemical
[6] = Aqueous solubility of the compound; type: physicochemical; conditions: buffer

Row | Compound | EC50 [3] [nM] | solubility [5] | solubility [6] | Activity [1] [%] | CC50 at 168 h [2] [nM] | selectivity ratio [4]
1 | CN1C(=O)[C@]2(Cc3ccccc3)SS[C@@]1(CO)C(=O)N2C |  |  |  | 74 |  | 
2 | O=C1[C@H](S)N(Cc2ccccc2)C(=O)[C@H](S)N1Cc1ccccc1 | 1800 |  |  | > 100 | 15000 | 
3 | O=C1[C@@H]2SS[C@@H](C(=O)N2Cc2ccccc2)N1Cc1ccccc1 (racemic) | 3900 to 4000 |  |  | > 100 | 4700 | 1.2
4 | CC(C)N1C(=O)[C@@H]2SS[C@H]1C(=O)N2Cc1ccccc1 (racemic) | 1600 |  |  | 50 | 6500 | 4
5 | CN1C(=O)[C@@H]2SS[C@H]1C(=O)N2C (racemic) | 3000 | Insoluble |  | 77 | > 10000 | > 3
6 | C=CCN1C(=O)[C@@H]2SS[C@@]1(CC=C)C(=O)N2Cc1ccccc1 (racemic) | > 10000 |  | Insoluble | > 100 | > 100000 | 
7 | COc1ccc(CN2C(=O)[C@@H]3SS[C@H]2C(=O)N3Cc2ccccc2)cc1 (racemic) | 410 |  |  | 99 | 5400 | 
8 | C=CCN1C(=O)[C@]2(CC=C)SS[C@@]1(CC=C)C(=O)N2CC=C (racemic) | 880 |  |  | 99 | 8800 | 10
9 | C=CCN1C(=O)[C@]2(Cc3ccccc3)SS[C@H]1C(=O)N2Cc1ccccc1 (racemic) | 890 |  |  | > 100 | 79000 | 88
10 | CS[C@H]1C(=O)N(Cc2ccccc2)[C@@H](SC)C(=O)N1Cc1ccccc1 (relative stereo) | > 100000 |  |  | 96 | > 100000 | 
11 | CN1C(=O)[C@@]23C[C@]4([C@]56C[C@@]78SS[C@@](CO)(C(=O)N7[C@H]5Nc5ccccc56)N(C)C8=O)c5ccccc5N[C@@H]4N2C(=O)[C@]1(CO)SS3 [CHAETOCIN] | 1.7 |  |  | 11 | 3.5 | 2.1
12 | CN1C(=O)[C@]23CC4=CC=C[C@H](O)[C@H]4N2C(=O)[C@@]1(CO)SS3 [GLIOTOXIN] |  |  |  | 6.1 |  | 
13 | Cc1nnc(C(=O)NC(C)(C)c2nc(C(=O)NCc3ccc(F)cc3)c(O)c(=O)n2C)o1 [RALTEGRAVIR] | 10 |  |  | > 100 | > 100000 | > 10000

Second part, led by results:

Row | EC50 [3] [nM] | solubility [5] | solubility [6] | Compound | Activity [1] [%] | CC50 at 168 h [2] [nM] | selectivity ratio [4]
14 | 2100 |  |  | C=CCN1C(=O)[C@@H]2SS[C@H]1C(=O)N2Cc1ccccc1 (racemic) | 96 | 5100 | 2.4
15 | 34 | Soluble |  | COC(=O)CCCCCN1C(=O)[C@@H]2SS[C@H]1C(=O)N2Cc1ccccc1 (racemic) | > 100 | > 10000 | > 300
16 | 88 |  |  | C=CC[C@@]12SS[C@@H](C(=O)N1Cc1ccccc1)N(Cc1ccccc1)C2=O (racemic) | > 100 | 6000 | 69
17 | 630 |  |  | CCCCN1C(=O)[C@@H]2SS[C@H]1C(=O)N2Cc1ccccc1 (racemic) | 63 | > 10000 | > 16
18 | 910 |  |  | CN1C(=O)[C@@H]2SS[C@H]1C(=O)N2Cc1ccccc1 (racemic) | > 100 | > 10000 | > 11
19 | 550 |  |  | O=C1[C@@H]2SS[C@@H](C(=O)N2Cc2cccc(Cl)c2)N1Cc1ccccc1 (racemic) | > 100 | > 100000 | > 184
20 | 160 | Soluble |  | CCOC(=O)CCCN1C(=O)[C@@H]2SS[C@H]1C(=O)N2Cc1ccccc1 (racemic) | > 100 | 7500 | 48
21 | 1900 |  |  | O=C1[C@@H]2SS[C@@H](C(=O)N2Cc2cccc3ccccc23)N1Cc1ccccc1 (racemic) | > 100 | 7200 | 4
22 | 53 | Soluble |  | CCOC(=O)CCN1C(=O)[C@@H]2SS[C@H]1C(=O)N2Cc1ccccc1 (racemic) | > 100 | > 10000 | > 190
23 | 110 |  |  | C=CCN1C(=O)[C@@H]2SS[C@@]1(Cc1ccccc1)C(=O)N2Cc1ccccc1 (racemic) | 85 | 720 | 6.7
24 | 5300 |  |  | Cc1cn([C@H]2C[C@H](N=[N+]=[N-])[C@@H](CO)O2)c(=O)[nH]c1=O [ZIDOVUDINE] | > 100 | > 100000 | 
